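Each compound was tested at five concentrations against cells in 96-well plates for 48 hours. GI50: concentration for 50% inhibition of growth.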 The source made the active and inactive calls. No stated cut-off is given here; in the data, active = GI50 up to about 1.1 µM and inactive = higher.
Columns and labels:
Experiment in all cases: growth of human tumour cells (NCI), 48 h
DMS-114 = system: DMS-114
DMS-273 = system: DMS-273
KM-20L2 = system: KM-20L2
LXFL 529 = system: LXFL 529
M19-MEL = system: M19-MEL
SNB-78 = system: SNB-78
XF498 = system: XF498
HOP-18 = system: HOP-18
RXF 631 = system: RXF 631

Row | SMILES | GI50 (DMS-114) | GI50 (DMS-273) | GI50 (KM-20L2) | GI50 (LXFL 529) | GI50 (M19-MEL) | GI50 (SNB-78) | GI50 (XF498) | GI50 (HOP-18) | GI50 (RXF 631)
1 | NC1CCCCC1.O=P(O)(O)C1(P(=O)(O)O)CC1 | > 100 µM (inactive) | > 100 µM (inactive) | > 100 µM (inactive) | > 100 µM (inactive) | > 100 µM (inactive) | > 100 µM (inactive) | > 100 µM (inactive) |  | 
2 | O=C(O)/C=C/c1nc2ccccc2c(=O)o1 | > 100 µM (inactive) | > 100 µM (inactive) | > 100 µM (inactive) | > 100 µM (inactive) | > 100 µM (inactive) | > 100 µM (inactive) |  | > 100 µM (inactive) | 
3 | c1ccc(C2=NOC3C4CCC(C4)C23)cc1 (stereo not given) | > 100 µM (inactive) | > 100 µM (inactive) |  | > 100 µM (inactive) | > 100 µM (inactive) | > 100 µM (inactive) |  | > 100 µM (inactive) | 
4 | COc1cc(/C=C/c2csnn2)cc(OC)c1OC | > 100 µM (inactive) |  |  | > 100 µM (inactive) | > 100 µM (inactive) | > 100 µM (inactive) | > 100 µM (inactive) | > 100 µM (inactive) | 
5 | C/C=C1/C(=O)O[C@]23C=C[C@@H]4C(C(=O)OC)=CO[C@H](O[C@@H]12)[C@@H]43 [PLUMERICIN] | 1.12 µM (inactive) | 2.32 µM (inactive) | 2.17 µM (inactive) |  | 0.726 µM (active) | 1.94 µM (inactive) | 1.38 µM (inactive) | 4.67 µM (inactive) | 
6 | O=C(CCCCCCCCCCc1ccccc1)C1=C(O)CC(O)CC1=O (stereo not given) | 35.5 µM (inactive) | 48 µM (inactive) | 55 µM (inactive) | 53.3 µM (inactive) | 53.3 µM (inactive) | > 100 µM (inactive) | > 100 µM (inactive) | > 100 µM (inactive) | 56.8 µM (inactive)
7 | CCOC(=O)C1=C(Nc2ccccc2)SCC1=O |  | > 100 µM (inactive) | > 100 µM (inactive) | > 100 µM (inactive) | > 100 µM (inactive) | > 100 µM (inactive) |  |  | > 100 µM (inactive)
8 | COc1cccc2c1C(=O)c1c(O)c3c(c(O)c1C2=O)C[C@@](O)(C(=O)CO)CC3OC1CC(N)C(OC2CCCCO2)C(C)O1 (stereo not given in full) |  | 0.308 µM (active) | 0.561 µM (active) | 0.668 µM (active) |  | 1.5 µM (inactive) | 0.54 µM (active) | 0.0977 µM (active) | 
9 | CN(C)CCNC(=O)c1cccc2nc3c4ccccc4c4ccccc4c3nc12 |  | 2.81 µM (inactive) | 3.8 µM (inactive) | 2.19 µM (inactive) | 1.88 µM (inactive) | 14.8 µM (inactive) | 2.47 µM (inactive) | 8.71 µM (inactive) | 2.33 µM (inactive)
10 | O=C(CC1(O)C(=O)Nc2ccccc21)c1ccc(O)cc1O (stereo not given) | > 100 µM (inactive) | > 100 µM (inactive) | > 100 µM (inactive) | > 100 µM (inactive) | > 100 µM (inactive) | > 100 µM (inactive) | > 100 µM (inactive) |  | 
11 | Cc1c2cc[n+](COC(=O)c3ccccc3)cc2c(C)c2c1[nH]c1ccccc12 | 0.75 µM (active) |  | 0.641 µM (active) | 0.506 µM (active) | 0.743 µM (active) | 1.32 µM (inactive) | 1.62 µM (inactive) | < 0.01 µM (active) | 
12 | CCOC(=O)CN1C(=O)c2cccc3cc([N+](=O)[O-])cc(c23)C1=O | 2.28 µM (inactive) |  | 13.3 µM (inactive) | 1.71 µM (inactive) |  | 5.82 µM (inactive) | 2.03 µM (inactive) | 19.7 µM (inactive) | 
13 | CCN(CC)C(=O)Cc1[nH][nH]c(=O)c1C(=O)N(CC)CC | > 100 µM (inactive) | > 100 µM (inactive) | > 100 µM (inactive) | > 100 µM (inactive) | > 100 µM (inactive) | > 100 µM (inactive) | > 100 µM (inactive) | > 100 µM (inactive) | 
14 | O=Cc1ccccc1OCCOc1cc(OCCOc2ccccc2C=O)c(OCCOc2ccccc2C=O)cc1OCCOc1ccccc1C=O | 47.3 µM (inactive) | 52.2 µM (inactive) | > 100 µM (inactive) | 33.7 µM (inactive) | > 100 µM (inactive) | 45.1 µM (inactive) | > 39.1 µM (inactive) | > 49.4 µM (inactive) | 
15 | CCS[C@H]1NC(=O)C1[C@H](C)O[Si](C)(C)C(C)(C)C (stereo not given in full) | 84.3 µM (inactive) | 97.7 µM (inactive) | > 100 µM (inactive) |  | > 100 µM (inactive) | > 100 µM (inactive) | > 100 µM (inactive) | > 100 µM (inactive) | 
16 | CCOc1cccc2c1N[S@@](=O)S2 |  | > 100 µM (inactive) | > 100 µM (inactive) | 58.7 µM (inactive) | > 100 µM (inactive) | > 100 µM (inactive) | 78.7 µM (inactive) |  | > 100 µM (inactive)
17 | CN(C)CCNC(=O)c1cc([N+](=O)[O-])cc2ccc(-c3ccccc3)nc12 | 7.16 µM (inactive) | 5.62 µM (inactive) | 6.46 µM (inactive) | 18.3 µM (inactive) | 5.93 µM (inactive) | 17.8 µM (inactive) | 7.19 µM (inactive) | 4.97 µM (inactive) | 
18 | O=C(Nc1cccc(Cl)c1)C(=O)C(C(=O)c1ccc2ccccc2c1)C1OC(=O)c2ccccc21 (stereo not given) | 11.5 µM (inactive) | 24.7 µM (inactive) | 33.7 µM (inactive) | 7.48 µM (inactive) | 13.8 µM (inactive) | 5.9 µM (inactive) |  | 12.1 µM (inactive) | 16.9 µM (inactive)
19 | O=C1Nc2cc([N+](=O)[O-])c(Br)cc2C1=O | 17.5 µM (inactive) | 20.1 µM (inactive) | 15.3 µM (inactive) |  | 16.4 µM (inactive) | 23.3 µM (inactive) | 12.1 µM (inactive) |  | 18.5 µM (inactive)
20 | COc1ccc(/C=C/C(=O)C(C)C)cc1 | 15.2 µM (inactive) | 38.5 µM (inactive) | 25.1 µM (inactive) | 21.7 µM (inactive) | 59.6 µM (inactive) | 14.9 µM (inactive) | > 100 µM (inactive) | 41.4 µM (inactive) | 
21 | CC(=O)NC1=C(C)C(=O)c2c(nc3n2CCC3O)C1=N (stereo not given) | 3.4 µM (inactive) | 17.8 µM (inactive) | 19.5 µM (inactive) |  | 2.36 µM (inactive) | 3.05 µM (inactive) | 3.81 µM (inactive) | 17.6 µM (inactive) | 
22 | CC(=O)NC(CCCCN(Cc1ccccc1)C(=O)NCCCl)C(=O)NCc1ccccc1 (stereo not given) | > 100 µM (inactive) | > 100 µM (inactive) | > 100 µM (inactive) | > 100 µM (inactive) |  |  |  | 29.1 µM (inactive) | > 100 µM (inactive)
23 | Nc1ncnc2c1ncn2C1CC(OC2CCCCO2)C(CO)O1 (stereo not given) | > 100 µM (inactive) | > 100 µM (inactive) | > 100 µM (inactive) | > 100 µM (inactive) | > 100 µM (inactive) | > 100 µM (inactive) | > 100 µM (inactive) | > 100 µM (inactive) | 
24 | COC(=O)CC1N/C(=N\C#N)N(CCc2c[nH]c3ccccc23)C1=O (stereo not given) | > 100 µM (inactive) | > 100 µM (inactive) | > 100 µM (inactive) | > 100 µM (inactive) | > 100 µM (inactive) | > 100 µM (inactive) | > 100 µM (inactive) |  | 
25 | N#CC(C(=O)CCC(=O)Nc1cccc(C(F)(F)F)c1)c1ccccc1 (stereo not given) | > 100 µM (inactive) | > 100 µM (inactive) | > 100 µM (inactive) | > 100 µM (inactive) | > 100 µM (inactive) | > 100 µM (inactive) | > 100 µM (inactive) |  | 
26 | CCO/C([O-])=C(/C=O)[n+]1c(C)n(C)c2ccccc21 | > 100 µM (inactive) | > 100 µM (inactive) | > 100 µM (inactive) | > 100 µM (inactive) | > 100 µM (inactive) | > 100 µM (inactive) |  | > 100 µM (inactive) | 

Reference: ChEMBL document CHEMBL1201862, “PubChem BioAssay data set” (2004)
